Data on 6 compounds can be found in patent US7390819B2 (Altana Pharma AG, priority 2003, dated 2008).

SMILES strings stand for the structures.

T1 sequence (P35228 whole entry): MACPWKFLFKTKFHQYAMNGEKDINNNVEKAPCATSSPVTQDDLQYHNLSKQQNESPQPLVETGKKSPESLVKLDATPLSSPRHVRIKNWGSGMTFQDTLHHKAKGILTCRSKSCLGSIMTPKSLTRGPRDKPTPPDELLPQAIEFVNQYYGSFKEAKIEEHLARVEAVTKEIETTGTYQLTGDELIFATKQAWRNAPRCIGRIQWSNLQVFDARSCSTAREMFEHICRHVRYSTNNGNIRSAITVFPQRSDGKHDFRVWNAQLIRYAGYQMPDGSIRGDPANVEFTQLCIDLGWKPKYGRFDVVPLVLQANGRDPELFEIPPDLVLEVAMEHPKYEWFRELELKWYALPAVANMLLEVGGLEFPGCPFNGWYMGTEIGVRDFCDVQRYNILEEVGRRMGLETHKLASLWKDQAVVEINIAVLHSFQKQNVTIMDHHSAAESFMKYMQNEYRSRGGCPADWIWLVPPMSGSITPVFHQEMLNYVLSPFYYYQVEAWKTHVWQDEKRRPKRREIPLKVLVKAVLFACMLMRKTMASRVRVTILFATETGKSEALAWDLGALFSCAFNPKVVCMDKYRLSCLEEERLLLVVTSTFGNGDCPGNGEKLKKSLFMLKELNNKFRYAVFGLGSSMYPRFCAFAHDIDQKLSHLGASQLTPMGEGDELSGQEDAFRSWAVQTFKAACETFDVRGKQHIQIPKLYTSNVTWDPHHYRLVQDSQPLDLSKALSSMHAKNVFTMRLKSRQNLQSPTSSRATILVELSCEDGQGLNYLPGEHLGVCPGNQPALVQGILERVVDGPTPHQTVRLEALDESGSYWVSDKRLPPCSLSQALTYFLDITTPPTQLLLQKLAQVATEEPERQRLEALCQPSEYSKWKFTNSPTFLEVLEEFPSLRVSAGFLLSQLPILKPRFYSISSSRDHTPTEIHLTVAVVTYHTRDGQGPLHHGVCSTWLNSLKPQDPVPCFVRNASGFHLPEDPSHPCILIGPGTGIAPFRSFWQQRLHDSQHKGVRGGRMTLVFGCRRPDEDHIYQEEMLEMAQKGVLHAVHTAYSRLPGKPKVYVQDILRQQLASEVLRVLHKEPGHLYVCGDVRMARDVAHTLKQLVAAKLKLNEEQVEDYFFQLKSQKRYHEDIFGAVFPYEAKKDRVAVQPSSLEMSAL

This assay concerns the target T1, human inducible NO-synthase (Homo sapiens, UniProt P35228).
T1 construct: host or cells: crude cytosolic fraction
Put plainly: Measurement of inducible NO-synthase activity ([3H]arginine conversion). The settings on record: crude cytosolic fraction containing human inducible NO-synthase; 0.1 μM arginine; 45 to 60 min at 37° C.; read-out: Inhibition of INOS activity [measured as −logIC50 (mol/l)] (converted). It is filed as biochemical. How it is done: Measurement of Inducible NO-synthase Activity
The assay is performed in 96-well microliter F-plates (Greiner, Frickenhausen, FRG) in a total volume of 100 μl in the presence of 100 nM calmodulin, 226 μM CaCl2, 477 μM MgCl2, 5 μM flavin-adenine-dinucleotide (FAD), 5 μM flavin mononucleotide (FMN), 0.1 mM NADPH, 7 mM glutathione, 10 μM BH4 and […] pH 7.2. Arginine concentrations are 0.1 μM for enzyme inhibition experiments. 150000 dpm of [^3H]arginine are added to the assay mixture. Enzyme reaction is started by the addition of 4 μg of a crude cytosolic fraction containing human inducible NO-synthase and the reaction mixture is incubated for 45 to 60 min at 37° C. Enzyme reaction is stopped by adding 10 μl of 2M MES-buffer pH 5.0. 50 μl of the incubation mixture are transferred into a MADP N65 filtration microtiter plate (Millipore, Eschborn, FRG) containing already 50 μl of AG-50W-X8 cation exchange resin (Biorad, München, FRG). The resin in the Na loaded form is pre-equilibrated in water and 70 μl (corresponding to 50 μl dry beads) are pipetted under heavy stirring with a 8 channel pipette into the filtration plate. After pipetting 50 μl of the enzyme reaction mixture onto the filtration plates, the plates are placed on a filtration manifold (Porvair, Shepperton, UK) and the flow through is collected in Pico scintillation plates (Packard, Meriden, Conn.). The resin in the filtration plates is washed with 75 μl of water (1×50 μl and 1×25 μl) which is also collected in the same plate as the sample. The total flow through of 125 μl is mixed with 175 μl of Microscint-40 scintillation cocktail (Packard) and the scintillation plate is sealed with TopSeal P-foil (Packard). Scintillation plates are counted in a scintillation counter.
For the measurement of inducible NO-synthase-inhibiting potencies of compounds increasing concentrations of inhibitors were included into the incubation mixture. IC50-values were calculated from the percent inhibition at given concentrations by nonlinear least square fitting.
The inhibitory values determined for the compounds according to the invention follow from the following table A, in which the compound numbers correspond to the example numbers.
As to `COc1ccnc(CCc2nc3cc4ccccc4nc3[nH]2)c1` [compound 1, 2-[2-(4-Methoxypyridin-2-yl)ethyl]-3H-imidazo[4,5-b]quinoline], the IC50 was 89.1 nM.
On to `COc1ccnc(CCc2nc3cc4cc(C)ccc4nc3[nH]2)c1` [compound 2, 2-[2-(4-Methoxypyridin-2-yl)ethyl]-7-methyl-3H-imidazo[4,5-b]quinoline], for which the IC50 is 117 nM.
Turning to `COc1ccnc(CCc2nc3cc4cccc(C)c4nc3[nH]2)c1` [compound 3, 2-[2-(4-Methoxypyridin-2-yl)ethyl]-5-methyl-3H-imidazo[4,5-b]quinoline], the IC50 is 135 nM.
`COc1ccnc(CCc2nc3cc4cc(OC)ccc4nc3[nH]2)c1` [compound 4, 7-Methoxy-2-[2-(4-methoxypyridin-2-yl)ethyl]-3H-imidazo[4,5-b]quinoline]: the IC50 is 102 nM.
Under `COc1ccnc(CCc2nc3cc4cc(Br)ccc4nc3[nH]2)c1` [compound 5, 7-Bromo-2-[2-(4-methoxypyridin-2-yl)ethyl]-3H-imidazo[4,5-b]quinoline] stands 77.6 nM; under `COc1ccnc(CCc2nc3cc4cc(-c5ccc(CO)cc5)ccc4nc3[nH]2)c1` [compound 6], 363 nM.
